Test system: 171881-019-R-J1-PDC tumor spheroids, viability
Test: Anticancer human tumor 171881-019-R-J1-PDC patient-derived invasive breast carcinoma cell line growth inhibition [GQUAD]
Details: spheroids with HUVEC and MSC; for IC50: curve of first compound; for viability, T/C: stronger effect = lower value
Method in brief: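 Viability of tumor cells grown as complex spheroids with endothelial and stromal cells, exposed to drug combinations. Top concentration at or near clinical Cmax (else 10 microM), diluted in half-log increments.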

[1] = second compound 0.0316 µM, first compound 0.0316 µM
[2] = second compound 0.0316 µM, first compound 0.1 µM
[3] = second compound 0.0316 µM, first compound 0.316 µM
[4] = second compound 0.0316 µM, first compound 1 µM
[5] = second compound 0.0316 µM, first compound 3.16 µM
[6] = second compound 0.0316 µM, first compound 10 µM
[7] = second compound 0.1 µM, first compound 0.0316 µM
[8] = second compound 0.1 µM, first compound 0.1 µM
[9] = second compound 0.1 µM, first compound 0.316 µM
[10] = second compound 0.1 µM, first compound 1 µM
[11] = second compound 0.1 µM, first compound 3.16 µM
[12] = second compound 0.1 µM, first compound 10 µM
[13] = second compound 0.316 µM, first compound 0.0316 µM
[14] = second compound 0.316 µM, first compound 0.1 µM
[15] = second compound 0.316 µM, first compound 0.316 µM
[16] = second compound 0.316 µM, first compound 1 µM
[17] = second compound 0.316 µM, first compound 3.16 µM
[18] = second compound 0.316 µM, first compound 10 µM
[19] = second compound 1 µM, first compound 0.0316 µM
[20] = second compound 1 µM, first compound 0.1 µM
[21] = second compound 1 µM, first compound 0.316 µM
[22] = second compound 1 µM, first compound 1 µM
[23] = second compound 1 µM, first compound 3.16 µM
[24] = second compound 1 µM, first compound 10 µM
[25] = second compound 3.16 µM, first compound 0.0316 µM
[26] = second compound 3.16 µM, first compound 0.1 µM
[27] = second compound 3.16 µM, first compound 0.316 µM
[28] = second compound 3.16 µM, first compound 1 µM
[29] = second compound 3.16 µM, first compound 3.16 µM
[30] = second compound 3.16 µM, first compound 10 µM
[31] = second compound 10 µM, first compound 0.0316 µM
[32] = second compound 10 µM, first compound 0.1 µM
[33] = second compound 10 µM, first compound 0.316 µM
[34] = second compound 10 µM, first compound 1 µM
[35] = second compound 10 µM, first compound 3.16 µM
[36] = second compound 10 µM, first compound 10 µM
[37] = second compound 0.0316 µM, first compound 0.000999 µM
[38] = second compound 0.0316 µM, first compound 0.00316 µM
[39] = second compound 0.0316 µM, first compound 0.00999 µM
[40] = second compound 0.0316 µM, first compound 0.0999 µM
[41] = second compound 0.1 µM, first compound 0.000999 µM
[42] = second compound 0.1 µM, first compound 0.00316 µM
[43] = second compound 0.1 µM, first compound 0.00999 µM
[44] = second compound 0.1 µM, first compound 0.0999 µM
[45] = second compound 0.316 µM, first compound 0.000999 µM
[46] = second compound 0.316 µM, first compound 0.00316 µM
[47] = second compound 0.316 µM, first compound 0.00999 µM
[48] = second compound 0.316 µM, first compound 0.0999 µM
[49] = second compound 1 µM, first compound 0.000999 µM
[50] = second compound 1 µM, first compound 0.00316 µM
[51] = second compound 1 µM, first compound 0.00999 µM
[52] = second compound 1 µM, first compound 0.0999 µM
[53] = second compound 3.16 µM, first compound 0.000999 µM
[54] = second compound 3.16 µM, first compound 0.00316 µM
[55] = second compound 3.16 µM, first compound 0.00999 µM
[56] = second compound 3.16 µM, first compound 0.0999 µM
[57] = second compound 10 µM, first compound 0.000999 µM
[58] = second compound 10 µM, first compound 0.00316 µM
[59] = second compound 10 µM, first compound 0.00999 µM
[60] = second compound 10 µM, first compound 0.0999 µM
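Throughout, for viability, T/C: 100% = DMSO vehicle control viability.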

C=CC(=O)N1CCN(c2nc(=O)n(-c3c(C)ccnc3C(C)C)c3nc(-c4c(O)cccc4F)c(F)cc23)C(C)C1 (stereo not given) + Cc1[nH]c2ccc(F)cc2c1-c1nc2c3cccnc3c3ncccc3c2[nH]1
IC50 (second compound 0.0316 µM): 9200 nM
IC50 (second compound 0.1 µM): 9550 nM
IC50 (second compound 0.316 µM): 8670 nM
IC50 (second compound 1 µM): 7980 nM
IC50 (second compound 3.16 µM): < 31.6 nM
IC50 (second compound 10 µM): < 31.6 nM
viability, T/C [1]: 92.1%
viability, T/C [2]: 91.5%
viability, T/C [3]: 84.8%
viability, T/C [4]: 109%
viability, T/C [5]: 90%
viability, T/C [6]: 46.5%
viability, T/C [7]: 83%
viability, T/C [8]: 92%
viability, T/C [9]: 101%
viability, T/C [10]: 112%
viability, T/C [11]: 87.9%
viability, T/C [12]: 48.4%
viability, T/C [13]: 100%
viability, T/C [14]: 94.2%
viability, T/C [15]: 91.4%
viability, T/C [16]: 104%
viability, T/C [17]: 92.8%
viability, T/C [18]: 43.7%
viability, T/C [19]: 84.9%
viability, T/C [20]: 80.1%
viability, T/C [21]: 76.2%
viability, T/C [22]: 79.5%
viability, T/C [23]: 85.4%
viability, T/C [24]: 42.4%
viability, T/C [25]: 21.9%
viability, T/C [26]: 16.6%
viability, T/C [27]: 26.8%
viability, T/C [28]: 21.9%
viability, T/C [29]: 24.5%
viability, T/C [30]: 16%
viability, T/C [31]: 38.5%
viability, T/C [32]: 41.4%
viability, T/C [33]: 41.6%
viability, T/C [34]: 47.6%
viability, T/C [35]: 44.9%
viability, T/C [36]: 34.1%

CCc1c2c(nc3ccc(O)cc13)-c1cc3c(c(=O)n1C2)COC(=O)[C@]3(O)CC + Cc1[nH]c2ccc(F)cc2c1-c1nc2c3cccnc3c3ncccc3c2[nH]1
IC50 (second compound 0.0316 µM): 2.72 nM
IC50 (second compound 0.1 µM): 2.74 nM
IC50 (second compound 0.316 µM): 2.61 nM
IC50 (second compound 1 µM): 2.24 nM
IC50 (second compound 3.16 µM): < 0.999 nM
IC50 (second compound 10 µM): < 0.999 nM
viability, T/C [37]: 80.3%
viability, T/C [38]: 42.4%
viability, T/C [39]: 35.7%
viability, T/C [1]: 33.1%
viability, T/C [40]: 25.8%
viability, T/C [3]: 23.3%
viability, T/C [41]: 78.6%
viability, T/C [42]: 43.2%
viability, T/C [43]: 35.6%
viability, T/C [7]: 33.8%
viability, T/C [44]: 28.5%
viability, T/C [9]: 22.6%
viability, T/C [45]: 74.4%
viability, T/C [46]: 42.9%
viability, T/C [47]: 34.8%
viability, T/C [13]: 33.4%
viability, T/C [48]: 27%
viability, T/C [15]: 23.4%
viability, T/C [49]: 66.6%
viability, T/C [50]: 39.5%
viability, T/C [51]: 34.4%
viability, T/C [19]: 27.8%
viability, T/C [52]: 23.6%
viability, T/C [21]: 18.7%
viability, T/C [53]: 19.9%
viability, T/C [54]: 14.7%
viability, T/C [55]: 14.6%
viability, T/C [25]: 11%
viability, T/C [56]: 10.2%
viability, T/C [27]: 7.94%
viability, T/C [57]: 32%
viability, T/C [58]: 33.6%
viability, T/C [59]: 25.1%
viability, T/C [31]: 19.4%
viability, T/C [60]: 17%
viability, T/C [33]: 12.5%

Cc1cccc(N(C)C(=O)C2C(O)CCN2c2nc(C)cc(C(F)(F)F)c2C#N)c1 (stereo not given) + Cc1[nH]c2ccc(F)cc2c1-c1nc2c3cccnc3c3ncccc3c2[nH]1
IC50 (second compound 0.0316 µM): > 10000 nM
IC50 (second compound 0.1 µM): > 10000 nM
IC50 (second compound 0.316 µM): > 10000 nM
IC50 (second compound 1 µM): > 10000 nM
IC50 (second compound 3.16 µM): < 31.6 nM
IC50 (second compound 10 µM): 3920 nM
viability, T/C [1]: 113%
viability, T/C [2]: 94.4%
viability, T/C [3]: 95.6%
viability, T/C [4]: 95.9%
viability, T/C [5]: 100%
viability, T/C [6]: 69%
viability, T/C [7]: 105%
viability, T/C [8]: 106%
viability, T/C [9]: 93.7%
viability, T/C [10]: 90.3%
viability, T/C [11]: 81.9%
viability, T/C [12]: 77.8%
viability, T/C [13]: 97.4%
viability, T/C [14]: 95.3%
viability, T/C [15]: 91.9%
viability, T/C [16]: 91.4%
viability, T/C [17]: 102%
viability, T/C [18]: 80.7%
viability, T/C [19]: 91.7%
viability, T/C [20]: 77.7%
viability, T/C [21]: 91.8%
viability, T/C [22]: 74.6%
viability, T/C [23]: 90.5%
viability, T/C [24]: 79%
viability, T/C [25]: 23.7%
viability, T/C [26]: 18.9%
viability, T/C [27]: 30.2%
viability, T/C [28]: 25.2%
viability, T/C [29]: 20.3%
viability, T/C [30]: 22.3%
viability, T/C [31]: 47.4%
viability, T/C [32]: 59%
viability, T/C [33]: 48.1%
viability, T/C [34]: 60.5%
viability, T/C [35]: 48.8%
viability, T/C [36]: 44.3%

Cn1ncnc1[C@H]1c2n[nH]c(=O)c3cc(F)cc(c23)N[C@@H]1c1ccc(F)cc1 + Cc1[nH]c2ccc(F)cc2c1-c1nc2c3cccnc3c3ncccc3c2[nH]1
IC50 (second compound 0.0316 µM): > 316 nM
IC50 (second compound 0.1 µM): > 316 nM
IC50 (second compound 0.316 µM): > 316 nM
IC50 (second compound 1 µM): > 316 nM
IC50 (second compound 3.16 µM): < 0.999 nM
IC50 (second compound 10 µM): < 0.999 nM
viability, T/C [37]: 97.1%
viability, T/C [38]: 94.5%
viability, T/C [39]: 93.2%
viability, T/C [1]: 101%
viability, T/C [40]: 94.6%
viability, T/C [3]: 84.5%
viability, T/C [41]: 88.5%
viability, T/C [42]: 106%
viability, T/C [43]: 90%
viability, T/C [7]: 101%
viability, T/C [44]: 99.1%
viability, T/C [9]: 87.6%
viability, T/C [45]: 102%
viability, T/C [46]: 107%
viability, T/C [47]: 91.9%
viability, T/C [13]: 84.8%
viability, T/C [48]: 102%
viability, T/C [15]: 82.4%
viability, T/C [49]: 79%
viability, T/C [50]: 76.8%
viability, T/C [51]: 81%
viability, T/C [19]: 75%
viability, T/C [52]: 89.1%
viability, T/C [21]: 78.6%
viability, T/C [53]: 20.5%
viability, T/C [54]: 18.4%
viability, T/C [55]: 23.2%
viability, T/C [25]: 21.1%
viability, T/C [56]: 19.7%
viability, T/C [27]: 17.1%
viability, T/C [57]: 48.6%
viability, T/C [58]: 52.7%
viability, T/C [59]: 55.2%
viability, T/C [31]: 47.3%
viability, T/C [60]: 56.7%
viability, T/C [33]: 58.1%

O=C(c1cc(Cc2n[nH]c(=O)c3ccccc23)ccc1F)N1CCN(C(=O)C2CC2)CC1 + Cc1[nH]c2ccc(F)cc2c1-c1nc2c3cccnc3c3ncccc3c2[nH]1
IC50 (second compound 0.0316 µM): > 10000 nM
IC50 (second compound 0.1 µM): > 10000 nM
IC50 (second compound 0.316 µM): > 10000 nM
IC50 (second compound 1 µM): > 10000 nM
IC50 (second compound 3.16 µM): < 31.6 nM
IC50 (second compound 10 µM): > 10000 nM
viability, T/C [1]: 95.7%
viability, T/C [2]: 105%
viability, T/C [3]: 102%
viability, T/C [4]: 106%
viability, T/C [5]: 99.3%
viability, T/C [6]: 89.3%
viability, T/C [7]: 102%
viability, T/C [8]: 103%
viability, T/C [9]: 96.7%
viability, T/C [10]: 95.7%
viability, T/C [11]: 89.1%
viability, T/C [12]: 80.3%
viability, T/C [13]: 91.7%
viability, T/C [14]: 107%
viability, T/C [15]: 107%
viability, T/C [16]: 96.2%
viability, T/C [17]: 91.6%
viability, T/C [18]: 81.9%
viability, T/C [19]: 86.5%
viability, T/C [20]: 75.6%
viability, T/C [21]: 91.3%
viability, T/C [22]: 80.6%
viability, T/C [23]: 87.2%
viability, T/C [24]: 78.4%
viability, T/C [25]: 27.8%
viability, T/C [26]: 23.5%
viability, T/C [27]: 24.4%
viability, T/C [28]: 31.8%
viability, T/C [29]: 28.9%
viability, T/C [30]: 25.7%
viability, T/C [31]: 55.1%
viability, T/C [32]: 51.2%
viability, T/C [33]: 57.2%
viability, T/C [34]: 60.7%
viability, T/C [35]: 60.5%
viability, T/C [36]: 49.5%

Reference: PubChem BioAssay AID2060498 (Molecular Pharmacology Branch, DTP, NCI, 2025)
